# Experimental data from PubChem BioAssay (NCI).
#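 Assay format: 96-well plates, 48-hour exposure. TGI denotes the concentration required for complete inhibition of growth.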
# What was measured:
# Assay in all cases: NCI anticancer screen, dose series, 48 h
# [1] = system: CCRF-CEM leukemia
# [2] = system: NCI-H522 lung
# [3] = system: OVCAR-3 ovarian
# [4] = system: KM12 colon
# [5] = system: SK-MEL-28 melanoma
# [6] = system: MOLT-4 leukemia
# [7] = system: HT29 colon
# [8] = system: K-562 leukemia
# [9] = system: HCT-15 colon
# [10] = system: HCC-2998 colon
# [11] = system: NCI-H226 lung
# [12] = system: SR leukemia
# [13] = system: HOP-62 NSCLC
# [14] = system: OVCAR-5 ovarian
# [15] = system: UO-31 renal
# [16] = system: RXF 393 renal
# [17] = system: SW-620 colon
# [18] = system: ACHN renal
# [19] = system: SF-539 CNS
# [20] = system: MCF7 breast
# [21] = system: IGROV1 ovarian
# [22] = system: HS 578T breast
# [23] = system: SK-MEL-5 melanoma
# [24] = system: 786-0 renal
# [25] = system: MDA-N
# [26] = system: T-47D breast
# [27] = system: SNB-75 CNS
# [28] = system: TK-10 renal
# [29] = system: NCI-H460 lung
# [30] = system: OVCAR-8 ovarian
# [31] = system: PC-3 prostate
# [32] = system: CAKI-1 renal
# [33] = system: EKVX NSCLC
# [34] = system: SNB-19 CNS
# [35] = system: NCI/ADR-RES ovarian
# [36] = system: MALME-3M melanoma
# [37] = system: COLO 205 colon
# [38] = system: OVCAR-4 ovarian
# [39] = system: UACC-257 melanoma
# [40] = system: SK-OV-3 ovarian
# [41] = system: HCT-116 colon
# [42] = system: DU-145 prostate
# [43] = system: SN12C renal
# [44] = system: SK-MEL-2 melanoma
# [45] = system: A498 renal
# [46] = system: U251 CNS
# [47] = system: SF-268 CNS
# [48] = system: A549 NSCLC
# [49] = system: BT-549 breast
# [50] = system: SF-295 CNS
# [51] = system: UACC-62 melanoma
# [52] = system: MDA-MB-231 breast
# [53] = system: MDA-MB-435
# [54] = system: HOP-92 NSCLC
# [55] = system: NCI-H23 lung
# [56] = system: M14 melanoma
# [57] = system: LOX IMVI melanoma
# [58] = system: RPMI-8226 leukemia
# [59] = system: HL-60(TB) leukemia
structure (smiles),measurement,setting,value
CC(C)C(=O)NCC[C@@H](CNC(=O)OC(C)(C)C)NC(=O)OC(C)(C)C,TGI,[1],> 100 µM
same,TGI,[2],> 100 µM
same,TGI,[3],> 100 µM
same,TGI,[4],> 100 µM
same,TGI,[5],> 100 µM
same,TGI,[6],> 100 µM
same,TGI,[7],> 100 µM
same,TGI,[8],> 100 µM
same,TGI,[9],> 100 µM
same,TGI,[10],> 100 µM
same,TGI,[11],> 100 µM
same,TGI,[12],> 100 µM
same,TGI,[13],> 100 µM
same,TGI,[14],> 100 µM
same,TGI,[15],> 100 µM
same,TGI,[16],> 100 µM
same,TGI,[17],> 100 µM
same,TGI,[18],> 100 µM
same,TGI,[19],> 100 µM
same,TGI,[20],> 100 µM
same,TGI,[21],> 100 µM
same,TGI,[22],> 100 µM
same,TGI,[23],> 100 µM
same,TGI,[24],> 100 µM
same,TGI,[25],> 100 µM
same,TGI,[26],> 100 µM
same,TGI,[27],> 100 µM
same,TGI,[28],> 100 µM
same,TGI,[29],> 100 µM
same,TGI,[30],> 100 µM
same,TGI,[31],> 100 µM
same,TGI,[32],> 100 µM
same,TGI,[33],> 100 µM
same,TGI,[34],> 100 µM
same,TGI,[35],> 100 µM
same,TGI,[36],> 100 µM
same,TGI,[37],> 100 µM
same,TGI,[38],> 100 µM
same,TGI,[39],> 100 µM
same,TGI,[40],> 100 µM
same,TGI,[41],> 100 µM
same,TGI,[42],> 100 µM
same,TGI,[43],> 100 µM
same,TGI,[44],> 100 µM
same,TGI,[45],> 100 µM
same,TGI,[46],> 100 µM
same,TGI,[47],> 100 µM
same,TGI,[48],> 100 µM
same,TGI,[49],> 100 µM
same,TGI,[50],> 100 µM
same,TGI,[51],> 100 µM
same,TGI,[52],> 100 µM
same,TGI,[53],> 100 µM
same,TGI,[54],> 100 µM
same,TGI,[55],> 100 µM
same,TGI,[56],> 100 µM
O=C(O)CCC1(C(=O)O)CCC(=O)c2ccccc21 (stereo not given),TGI,[1],> 100 µM
same,TGI,[2],> 100 µM
same,TGI,[57],> 100 µM
same,TGI,[3],> 100 µM
same,TGI,[4],> 100 µM
same,TGI,[5],> 100 µM
same,TGI,[7],> 100 µM
same,TGI,[8],> 100 µM
same,TGI,[9],> 100 µM
same,TGI,[10],> 100 µM
same,TGI,[11],> 100 µM
same,TGI,[12],> 100 µM
same,TGI,[13],> 100 µM
same,TGI,[14],> 100 µM
same,TGI,[15],> 100 µM
same,TGI,[16],> 100 µM
same,TGI,[17],> 100 µM
same,TGI,[18],> 100 µM
same,TGI,[19],> 100 µM
same,TGI,[20],> 100 µM
same,TGI,[21],> 100 µM
same,TGI,[22],> 100 µM
same,TGI,[23],> 100 µM
same,TGI,[58],> 100 µM
same,TGI,[24],> 100 µM
same,TGI,[25],> 100 µM
same,TGI,[59],> 100 µM
same,TGI,[26],> 100 µM
same,TGI,[27],> 100 µM
same,TGI,[28],> 100 µM
same,TGI,[29],> 100 µM
same,TGI,[30],> 100 µM
same,TGI,[31],> 100 µM
same,TGI,[32],> 100 µM
same,TGI,[34],> 100 µM
same,TGI,[35],> 100 µM
same,TGI,[36],> 100 µM
same,TGI,[37],> 100 µM
same,TGI,[38],> 100 µM
same,TGI,[39],> 100 µM
same,TGI,[40],> 100 µM
same,TGI,[41],> 100 µM
same,TGI,[42],> 100 µM
same,TGI,[43],> 100 µM
same,TGI,[44],> 100 µM
same,TGI,[45],> 100 µM
same,TGI,[46],> 100 µM
same,TGI,[47],> 100 µM
same,TGI,[48],> 100 µM
same,TGI,[49],> 100 µM
same,TGI,[50],> 100 µM
same,TGI,[51],> 100 µM
same,TGI,[52],> 100 µM
same,TGI,[53],> 100 µM
same,TGI,[54],> 100 µM
same,TGI,[55],> 100 µM
same,TGI,[56],> 100 µM
CCOC(=O)/C=C/C1OC(C)(C)OC1/C=C/C(=O)OCC (stereo not given),TGI,[1],57.7 µM
same,TGI,[2],51.1 µM
same,TGI,[57],> 100 µM
same,TGI,[4],70.7 µM
same,TGI,[5],87.7 µM
same,TGI,[6],63.3 µM
same,TGI,[7],57.6 µM
same,TGI,[8],48.4 µM
same,TGI,[9],64.2 µM
same,TGI,[10],47.4 µM
same,TGI,[11],> 100 µM
same,TGI,[12],43.3 µM
same,TGI,[13],> 100 µM
same,TGI,[14],> 100 µM
same,TGI,[15],> 100 µM
same,TGI,[16],> 100 µM
same,TGI,[17],49.2 µM
same,TGI,[18],> 100 µM
same,TGI,[19],> 100 µM
same,TGI,[20],> 100 µM
same,TGI,[21],> 100 µM
same,TGI,[22],> 100 µM
same,TGI,[23],> 100 µM
same,TGI,[58],47.7 µM
same,TGI,[24],> 100 µM
same,TGI,[25],> 100 µM
same,TGI,[26],> 100 µM
same,TGI,[27],> 100 µM
same,TGI,[28],> 100 µM
same,TGI,[29],48.9 µM
same,TGI,[30],82.7 µM
same,TGI,[31],> 100 µM
same,TGI,[32],54.7 µM
same,TGI,[33],94.9 µM
same,TGI,[34],> 100 µM
same,TGI,[35],> 100 µM
same,TGI,[36],> 100 µM
same,TGI,[37],> 100 µM
same,TGI,[38],> 100 µM
same,TGI,[39],> 100 µM
same,TGI,[40],> 100 µM
same,TGI,[41],> 100 µM
same,TGI,[42],> 100 µM
same,TGI,[43],> 100 µM
same,TGI,[44],> 100 µM
same,TGI,[45],> 100 µM
same,TGI,[46],> 100 µM
same,TGI,[47],> 100 µM
same,TGI,[48],> 100 µM
same,TGI,[49],> 100 µM
same,TGI,[50],> 100 µM
same,TGI,[51],> 100 µM
same,TGI,[52],> 100 µM
same,TGI,[53],> 100 µM
same,TGI,[54],41.8 µM
same,TGI,[55],> 100 µM
same,TGI,[56],> 100 µM
